Experimental findings from ChEMBL document CHEMBL1201862, “PubChem BioAssay data set” (2004) are described below.

Holding throughout (test): NCI-60 cell line screen, 48 h
For assay [1], the system named is HCT-116.
Assay [2] relates to SW-620.
Assay [3] concerns HCT-15.
Assay [4] has as its system MDA-MB-435.
Assay [5] relates to TK-10.
The subject of assay [6] is DU-145.
Assay [7] relates to SF-268.
Assay [8] relates to OVCAR-5.
Assay [9] deals with UO-31.
Assay [10] relates to HT-29.
Assay [11] deals with OVCAR-3.
Assay [12] relates to MDA-MB-231.
Assay [13] relates to COLO 205.
Assay [14] deals with OVCAR-4.
Assay [15] deals with OVCAR-8.
Assay [16] has as its system SR.
Assay [17] has as its system HCC 2998.
Assay [18] has as its system LOX IMVI.
For assay [19], the system named is NCI-H460.
The subject of assay [20] is BT-549.

Structures are written as SMILES.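 Method: 48-hour compound exposure of cells in 96-well plates, five concentrations, linear interpolation of endpoints. At the GI50, growth is halved.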 Active and inactive are the calls of the source. Cut-off read from the data, not from the text of the source: active = GI50 up to about 1.1 µM and inactive = higher. A value given as a limit tells only on which side of the number the result lay.

With `COc1ccc(C=O)cc1Oc1ccc(C[C@H]2c3c(cc(OC)c4c3Oc3cc5c(cc3O4)CCN(C)C5=O)CCN2C)cc1`, the GI50 in assay [1] was 7.05 µM (inactive); in assay [2], 12.1 µM (inactive); in [3], 10.1 µM; in assay [4], 9.73 µM (inactive); in [5] it was 11.2 µM (inactive); in assay [6] it was 12.1 µM (inactive). Moreover, the GI50 was 10.3 µM (inactive) in assay [7]; 12.1 µM (inactive) in assay [8]; 7.93 µM (inactive) in [9]; 7.52 µM (inactive) in [10]; 8.43 µM (inactive) in [11]; 7.6 µM (inactive) in [12]. In addition, the GI50 in assay [13] is 20.8 µM (inactive); in assay [14] it was 7.93 µM (inactive); in assay [15] it was 7.87 µM (inactive); in [16], 9.38 µM (inactive); in assay [17], 8.28 µM (inactive); in assay [18] it was 9.29 µM (inactive). Besides, the GI50 in assay [19] was 9.04 µM (inactive).
Take `COc1ccc(N2/C(=N/c3ccccc3)SC(=N/S(=O)(=O)c3ccccc3)/C2=N\S(=O)(=O)c2ccccc2)cc1`: the GI50 in assay [1] was 12.6 µM (inactive); in [20] it was 24.3 µM (inactive); in assay [2], 34.8 µM (inactive); in assay [3], 13.3 µM; in assay [5] it was 20.1 µM (inactive); in assay [8], 22.6 µM (inactive). Further, the GI50 in assay [9] is 19.2 µM (inactive); in assay [10], 19.6 µM (inactive); in assay [12] it was 14.3 µM (inactive); in assay [13] it was 16.4 µM (inactive); in assay [15], 18.2 µM (inactive); in [16], 16.8 µM (inactive). Besides, the results for the GI50 in assay [17] and in assay [19] were 17.3 µM (inactive) and 11.3 µM (inactive), respectively.
On to `Cn1c(=O)c2c(no[n+]2[O-])c2ccccc21`, for which the GI50 in [1] was 12.9 µM (inactive); in assay [20] it was 15 µM (inactive); in [2] it was 20 µM (inactive); in assay [3], 11.1 µM; in [4], 24.8 µM (inactive); in [5] it was 27.8 µM (inactive). For the same compound, the GI50 was 20.5 µM (inactive) in assay [7]; > 10 µM (inactive) in [8]; 24.3 µM (inactive) in [9]; 17.5 µM (inactive) in [10]; 22.1 µM (inactive) in assay [11]; 19.7 µM (inactive) in assay [12]. The GI50 in assay [13] was 17.7 µM (inactive); in assay [14], 18.4 µM (inactive); in assay [15] it was 12.7 µM (inactive); in assay [16], 5 µM (inactive); in [17] it was 12.9 µM (inactive); in assay [18] it was 10.9 µM (inactive). The GI50 in [19] was 17.8 µM (inactive).
In the case of `COC(=O)C(Cc1nc2ccccc2nc1O)C(=O)C(=O)Nc1cc(C(F)(F)F)ccc1Cl` (stereo not given), the GI50 is 18.2 µM (inactive) in assay [1]; 14.9 µM (inactive) in [20]; 13.8 µM (inactive) in assay [2]; 13.8 µM in [3]; 19.4 µM (inactive) in assay [4]; 21.1 µM (inactive) in assay [5]. Besides, the GI50 in [7] is 14.2 µM (inactive); in assay [8], 19.4 µM (inactive); in [9] it was 15.5 µM (inactive); in [10], 15.3 µM (inactive); in [11] it was 12.8 µM (inactive); in assay [12], 22.2 µM (inactive). Moreover, the GI50 was 12.1 µM (inactive) in assay [14]; 12.1 µM (inactive) in [15]; 4.58 µM (inactive) in assay [16]; 13.6 µM (inactive) in assay [17]; 16.2 µM (inactive) in assay [18]; 19 µM (inactive) in assay [19].
In the case of `COc1ccc(CNc2nc(NC3CCCCC3)nc(NC3CCCCC3)n2)cc1`, the GI50 is 2.85 µM (inactive) in assay [1]; 8.53 µM (inactive) in [20]; 4.19 µM (inactive) in assay [2]; 2.13 µM in assay [3]; 21.8 µM (inactive) in assay [4]; 10 µM (inactive) in assay [5]. For the same compound, the GI50 in [6] was 5.6 µM (inactive); in assay [7], 6.46 µM (inactive); in [8] it was 4.06 µM (inactive); in assay [9], 3.57 µM (inactive); in assay [10], 2.61 µM (inactive); in [11], 11.3 µM (inactive). Besides, the GI50 in [12] is 3.44 µM (inactive); in assay [13] it was 3.62 µM (inactive); in [14], 4.02 µM (inactive); in [15], 15.4 µM (inactive); in [18], 1.79 µM (inactive); in [19] it was 3.44 µM (inactive).
Regarding `O=C(COc1ccc(OCC(=O)N2C(=O)CC(=O)N(c3ccc(Cl)cc3)C2=S)cc1)N1C(=O)CC(=O)N(c2ccc(Cl)cc2)C1=S`, the GI50 was 10.1 µM (inactive) in [1]; 23.3 µM (inactive) in [20]; 53.1 µM (inactive) in [2]; 24.3 µM in assay [3]; 32 µM (inactive) in assay [4]; 37.3 µM (inactive) in assay [5]. In addition, the GI50 in [6] was 31.6 µM (inactive); in [7] it was 40.4 µM (inactive); in assay [8] it was 12.9 µM (inactive); in assay [9], 31.7 µM (inactive); in assay [10], 24.6 µM (inactive); in [12] it was 27.9 µM (inactive). In addition, the GI50 was 18.2 µM (inactive) in assay [13], 33.6 µM (inactive) in assay [14], 28.5 µM (inactive) in assay [17] and 29.2 µM (inactive) in assay [19].
Turning to `COC(=O)c1c(C)cccc1/C=C1\Cc2ccc(C)c(C)c2C1=O`, the GI50 in assay [1] was > 100 µM (inactive); in [20], > 100 µM (inactive); in assay [2] it was > 100 µM (inactive); in [3] it was > 100 µM; in assay [5] it was > 100 µM (inactive); in assay [6] it was > 100 µM (inactive). Moreover, the GI50 in [7] is 67.5 µM (inactive); in [8] it was > 100 µM (inactive); in assay [9], 28.8 µM (inactive); in assay [10] it was > 100 µM (inactive); in assay [11], > 100 µM (inactive); in assay [12] it was > 100 µM (inactive). Moreover, the GI50 in [14] is 22.3 µM (inactive); in [15], > 100 µM (inactive); in assay [16], 8.39 µM (inactive); in assay [17] it was > 100 µM (inactive); in [18], > 100 µM (inactive); in [19], > 100 µM (inactive).
Consider `Cc1ccc(S(=O)(=O)Nc2ccccc2C(=O)c2ccc(C)c(C)c2)cc1`, for which the GI50 in assay [1] was > 100 µM (inactive); in assay [20], > 100 µM (inactive); in assay [2] it was > 100 µM (inactive); in [3], > 100 µM; in assay [4], 41.9 µM (inactive); in assay [5] it was > 100 µM (inactive). Further, the GI50 in [6] was > 100 µM (inactive); in assay [7], > 100 µM (inactive); in [8], > 100 µM (inactive); in assay [9], > 100 µM (inactive); in assay [10] it was > 100 µM (inactive); in [11] it was 83.9 µM (inactive). Besides, the GI50 in assay [12] was > 100 µM (inactive); in assay [13], > 100 µM (inactive); in assay [14], > 100 µM (inactive); in assay [15] it was > 100 µM (inactive); in assay [18] it was > 100 µM (inactive); in [19], 80.2 µM (inactive).
Take `Cc1cccc(/C(Br)=C2/OC(=O)c3ccccc32)c1`: the GI50 in [1] was > 100 µM (inactive); in assay [20], > 100 µM (inactive); in [2] it was > 100 µM (inactive); in assay [3], > 100 µM; in assay [4], > 100 µM (inactive); in assay [5], > 100 µM (inactive). The GI50 in assay [6], in [7], in assay [8], in assay [10], in assay [11] and in assay [13] was > 100 µM (inactive) in each case. For the same compound, the GI50 in assay [14], in [15], in assay [16], in [17] and in [19] was > 100 µM (inactive) each time.
As to `C/C=C\C(CC(=O)NCCC1CN(C(=O)c2ccccc2)c2ccccc21)CC(=O)OC` (stereo not given), the GI50 in [1] is > 100 µM (inactive); in assay [20] it was > 100 µM (inactive); in assay [2] it was > 100 µM (inactive); in [3], > 100 µM; in assay [4], > 100 µM (inactive); in [5], > 100 µM (inactive). Also, the GI50 in assay [6], in assay [7], in assay [8], in assay [9], in assay [10] and in assay [11] was > 100 µM (inactive) each time. In addition, the GI50 in assay [12], in assay [13], in [14], in assay [15], in assay [17] and in assay [19] was > 100 µM (inactive) in each case.
Take `Cn1nc(Cc2ccc(Cl)cc2)n(N)c1=O`: the GI50 in [1] was > 100 µM (inactive); in [20], > 100 µM (inactive); in assay [2], > 100 µM (inactive); in [3], > 100 µM; in assay [4] it was > 100 µM (inactive); in assay [5], > 100 µM (inactive). The GI50 in assay [6], in assay [7], in assay [8], in [9], in [10] and in [12] was > 100 µM (inactive) throughout. Moreover, the GI50 in assay [15], in assay [17] and in assay [19] was > 100 µM (inactive) in each case.
